In patent publication US10717714B2, “Reactive ultraviolet absorber and application thereof” (CHITEC TECHNOLOGY CO., LTD., priority 2017, dated 2020):

Assay: Thermal stability test (Gardner color of DMF solution before and after 150° C. for 3 hours)
Type: physicochemical
Details: for Color (Gardner color scale), after thermal processing for 3 hours / Color (Gardner color scale), initial: 2 g in 10 ml DMF; for Color (Gardner color scale), after thermal processing for 3 hours: 150° C. for 3 hours; for Color (Gardner color scale), initial: before thermal processing; for Change in color (delta color): before and after heating at 150° C. for 3 hours
Description: 2 g each of the reactive UV absorber I of the present invention, the comparative reactive UV absorber A, and the comparative reactive UV absorber B represented by the following formula B (an embodiment of reactive UV absorber with formula (IIIb) disclosed by U.S. Pat. No. 5,459,222) were respectively dissolved in 10 ml of dimethylformamide (DMF), and the obtained dimethylformamide solutions were subjected to thermal processing at 150° C. for 3 hours. The Gardner color scales of the solutions were measured by colorimeter (Lovibond PFXi-195).

Row | Compound | Color (Gardner color scale), after thermal processing for 3 hours | Color (Gardner color scale), initial | Change in color (delta color)
1 | CC(C)(C)c1cc(CCC(=O)N(CCO)CCO)cc(-n2n3c4ccccc4n23)c1O [Comparative reactive UV absorber A] | 9.1 | 5.4 | 3.7
2 | Cc1cc(CN(CCO)CCO)c(O)c(-n2n3c4ccccc4n23)c1 [Comparative reactive UV absorber B] | 7.2 | 4.2 | 3.0
